How the values were obtained:
[1] = tested on: MC903-induced spontaneous chronic itch in mice; assay: MC903-induced mouse model of atopic dermatitis, spontaneous scratching; assay type: in vivo; settings: cilengitide 100 nM by tail vein injection, Day 10
Procedure: C57BL6 mice (Jackson Labs, Ellsworth, Maine, United States of America) were applied daily with MC903 (4 nmol) and vehicle (97% ethanol) after brief anesthesia. Skin thickness was measured using cutimeter as described (Fukuyama et al., 2015). Scratching behavior was video-monitored for 30 min on Day 1 and Day 7. On Day 7 skin was collected from vehicle and MC903 treated mice for the Western Blot (WB) as described below. NC/Nga mice (Charles River, Yokohama, Japan) were sensitized and challenged with house dust mite (HDM) allergen (Dermatophagoides farina, Greer, Lenoir, N.C., United States of Amercia) as described previously (Fukuyama et al., 2018). […] Scratching behavior was video monitored for 60 min period immediately after HDM on day 42. […] The amount of periostin was determined using ELISA according to the manufacturer's instruction.
A mouse model of atopic dermatitis in mice is generated. […] At Day 10, vehicle or the compound (at least one dose) is administered intravenous/orally to the animals, and then measured the scratching behaviors for at least 60 min. In order to see the sub-chronic effect of the compound, vehicle and the compound is administered to MC903-treated animals for several days and the alteration of the scratching behaviors is measured.

TRPA1 = target: T1, TRPA1 (Mus musculus, UniProt Q8BLA8); assay: AITC (mustard)-induced calcium response in DRG neurons (specificity control); assay type: cell-based; settings: perfusion with 100 nM cilengitide
T1 construct: endogenous in cells; host or cells: primary mouse dorsal root ganglion neurons
Procedure: Before imaging, cells were incubated in 350 μL of complete media containing 1 μM Fura-2 AM (Enzo Life Sciences, Farmingdale, New York, United States of America) for 30 min at 37° C. with 5% CO2. During imaging, the cells were perfused with a buffer containing the following: 135 mM sodium chloride, 3.2 mM potassium chloride, 2.5 mM magnesium chloride, 2.8 mM calcium chloride, 667 μM monobasic sodium phosphate, 14.2 mM sodium bicarbonate, and 10.9 mM D-glucose (all from VWR International, Radnor, Pennsylvania, United States of America) with a pH between 7.00 and 7.40. The buffer and the holding plate were kept at 37° C. while imaging. Imaging data was collected on a TE200 inverted microscope using NIS Elements software (Nikon, Melville, New York, United States of America). Cells were exposed to 340 nm and 380 nm wavelengths for 100 ms and the A340/A380 ratio was calculated. Traces were analyzed using Excel and responses greater than 10% of the baseline were counted. Each data point in the scatter plots represented one coverslip.

[2] = tested on: histamine-dependent itch in mice; assay: Histamine-induced itch in mice; assay type: in vivo, mouse; settings: i.v. cilengitide 100 nM 10 minutes prior to histamine 100 μg/10 μl
Procedure: (§1) All behavioral experiments were conducted during the light cycle at ambient temperature (23° C.). Behavioral assessment of scratching behavior was conducted as described previously (Mishra et al., 2011). Briefly, mice were injected intradermal into the nape of the neck with periostin (R&D), histamine, and chloroquine (all Millipore-Sigma) as previously described (Shimada and LaMotte, 2008). Compounds were diluted in PBS and the same was used as a vehicle. […] Additionally, cilengitide and periostin were combined together (mix) and injected i.d. into the dorsal neck of mouse. Scratching behavior was recorded for 30 minutes and data was presented in bouts per 30 minutes for mice. […] For eye wipes assay, periostin and capsaicin were dropped on mouse cornea and counted wipes for 1-minute. […] For dog's study, periostin (25 μg/25 μl) was injected in the dorsal neck (s.c.) and behavior was recorded and quantified for 30 minutes as “duration of pruritus manifestation” (DPM), as described earlier (Paps et al., 2016). […] When different raters separately scored a single tape, the ratings indicated high interrater reliability (coefficient of correlation, r>0.95). This method of itch readout in NHP has been used and accepted (Ko and Naughton, 2000). The behavior was recorded for 30 minutes duration and number of scratches quantified. […]

mouse cornea = assay: Eye wipes assay (corneal application); assay type: in vivo; settings: wild-type mice, wiping measured for 1 minute
Procedure: as §1

monkeys = assay: Periostin injection in monkeys, number of scratches; assay type: in vivo, monkey; settings: mouse recombinant periostin 25 μg/100 μl subcutaneously, thigh, within 15 minutes
Procedure: as §1

[3] = tested on: Mouse bone marrow-derived mast cells; assay: Mast cell degranulation (β-hexoseaminidase release); assay type: cell-based; settings: increasing concentrations, 30 minutes challenge
Procedure: Mouse bone marrow-derived mast cells were cultured from femurs of C57B1/6J mice as described (Jensen et al., 2006). Degranulation was assessed by measuring β-hexoseaminidase release as described (Cruse et al., 2013) using mast cells sensitized with 100 ng/mL anti-DNP IgE (SPE7 clone) (Sigma Aldrich, St. Louis, Miss., United States of America) for 16 hours, before the cells were challenged for 30 minutes with the indicated stimulus.

T1 sequence (Q8BLA8 whole entry, the tested form may be a part): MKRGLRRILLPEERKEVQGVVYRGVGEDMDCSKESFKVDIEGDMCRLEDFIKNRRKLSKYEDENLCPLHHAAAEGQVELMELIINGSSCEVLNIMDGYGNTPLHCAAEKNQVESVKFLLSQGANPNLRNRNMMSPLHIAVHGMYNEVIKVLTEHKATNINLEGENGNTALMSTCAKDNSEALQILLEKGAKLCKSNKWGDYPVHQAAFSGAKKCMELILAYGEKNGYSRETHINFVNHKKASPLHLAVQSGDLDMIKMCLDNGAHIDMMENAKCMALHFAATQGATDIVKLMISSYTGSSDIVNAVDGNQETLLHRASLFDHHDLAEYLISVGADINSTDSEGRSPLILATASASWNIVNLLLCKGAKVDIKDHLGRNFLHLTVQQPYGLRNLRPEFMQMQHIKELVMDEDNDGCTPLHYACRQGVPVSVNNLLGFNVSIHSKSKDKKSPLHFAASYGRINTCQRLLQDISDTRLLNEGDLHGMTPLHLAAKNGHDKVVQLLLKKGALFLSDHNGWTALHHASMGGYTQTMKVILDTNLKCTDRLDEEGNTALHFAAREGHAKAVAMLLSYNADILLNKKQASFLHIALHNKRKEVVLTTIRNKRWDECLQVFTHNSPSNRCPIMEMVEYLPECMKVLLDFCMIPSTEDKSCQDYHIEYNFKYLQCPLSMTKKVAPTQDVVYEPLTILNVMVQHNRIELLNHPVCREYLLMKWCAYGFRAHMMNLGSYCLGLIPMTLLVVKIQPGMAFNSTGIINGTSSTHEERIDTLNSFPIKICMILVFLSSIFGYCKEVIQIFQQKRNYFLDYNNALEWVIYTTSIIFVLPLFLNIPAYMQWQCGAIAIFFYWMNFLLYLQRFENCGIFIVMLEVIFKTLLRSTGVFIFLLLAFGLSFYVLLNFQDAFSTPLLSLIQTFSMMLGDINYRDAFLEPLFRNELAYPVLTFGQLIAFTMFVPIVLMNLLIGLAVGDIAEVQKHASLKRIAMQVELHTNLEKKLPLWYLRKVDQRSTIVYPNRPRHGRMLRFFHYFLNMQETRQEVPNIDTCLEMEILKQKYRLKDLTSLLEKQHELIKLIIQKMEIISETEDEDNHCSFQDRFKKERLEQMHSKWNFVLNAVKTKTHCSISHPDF

Row | Molecule | MC903-induced spontaneous itching [1] | AITC-induced calcium response (TRPA1) | histamine-induced itch (scratching bouts per 30 minutes) [2] | eye-wiping response to ocular application (mouse cornea) | itch after periostin injection in monkeys (monkeys) | degranulation of anti-DNP IgE-sensitized mast cells [3]
1 | CC(C)[C@H]1C(=O)N[C@@H](CCCN=C(N)N)C(=O)NCC(=O)N[C@@H](CC(=O)O)C(=O)N[C@H](Cc2ccccc2)C(=O)N1C [cilengitide, cyclo RGDf-n(Me)V] | significantly reduced | did not reduce | inhibits | – | – | –
2 | periostin: fasciclin extracellular matrix protein, endogenous ligand of integrin αvβ3; mouse recombinant used (protein) NSYYDKVLAHSRIRGRDQGPNVCALQQILGTKKKYFSSCKNWYQGAICGKKTTVLYECCPGYMRMEGMKGCPAVMPIDHVYGTLGIVGATTTQHYSDVSKLREEIEGKGSYTYFAPSNEAWENLDSDIRRGLENNVNVELLNALHSHMVNKRMLTKDLKHGMVIPSMYNNLGLFINHYPNGVVTVNCARVIHGNQIATNGVVHVIDRVLTQIGTSIQDFLEAEDDLSSFRAAAITSDLLESLGRDGHFTLFAPTNEAFEKLPRGVLERIMGDKVASEALMKYHILNTLQCSEAITGGAVFETMEGNTIEIGCEGDSISINGIKMVNKKDIVTKNGVIHLIDEVLIPDSAKQVIELAGKQQTTFTDLVAQLGLASSLKPDGEYTLLAPVNNAFSDDTLSMDQRLLKLILQNHILKVKVGLSDLYNGQILETIGGKQLRVFVYRTAICIENSCMVRGSKQGRNGAIHIFREIIQPAEKSLHDKLRQDKRFSIFLSLLEAADLKDLLTQPGDWTLFAPTNDAFKGMTSEERELLIGDKNALQNIILYHLTPGVYIGKGFEPGVTNILKTTQGSKIYLKGVNETLLVNELKSKESDIMTTNGVIHVVDKLLYPADIPVGNDQLLELLNKLIKYIQIKFVRGSTFKEIPMTVYRPAMTKIQIEGDPDFRLIKEGETVTEVIHGEPVIKKYTKIIDGVPVEITEKQTREERIITGPEIKYTRISTGGGETGETLQKFLQKEVSKVTKFIEGGDGHLFEDEEIKRLLQGDTPAKKIPANKRVQGPRRRSREGRSQ | – | – | – | No eye-wiping response | robust scratching | no degranulation

— US20220370545A1, “INTEGRIN RECEPTOR ALPHA V BETA 3 AND ITS LIGAND INVOLVED IN CHRONIC ITCH” (North Carolina State University, priority 2019, published 2022)
